Experimental data taken from patent US10568949B2, “Method of eliciting an anti-tumor immune response with controlled delivery of TLR agonists in porous polymerlc devices” (President and Fellows of Harvard College, priority 2008, dated 2020).
Several values for one entry are separate records, joined by “and”; a condition that tells them apart may be missing. Equal values may be shown once.

What was measured:
[1] = test system: host DCs; experiment: In vivo DC recruitment and activation in PLG matrices (FACS); parameters: species or system C57BL/6J mice; conditions: for proportion of CD8+ cDCs in DC population at vaccine site / proportion of pDCs in DC population at vaccine site / total DC numbers in situ: antigen-loaded matrices, CpG and GM-CSF together versus GM-CSF alone
Protocol: Blank scaffolds and scaffolds containing GM-CSF with or without 10 μg PEI-ODN control (5′-tcc atg agc ttc ctg agc tt-3′) (SEQ ID NO: 6) or 10 μg PEI-CpG-ODN condensate loaded scaffolds were implanted into subcutaneous pockets on the back of 7-9 week old male C57BL/6J mice. For histological examination scaffolds were excised and fixed in Z-fix solution, embedded in paraffin, and stained with hematoxylin and eosin. To analyze DC recruitment, scaffolds were excised and the ingrown tissue was digested into single cell suspensions using a collagenase solution (Worthingtion, 250 U/ml) that was agitated at 37° C. for 45 minutes. The cell suspensions were then poured through a 40 μm cell strainer to isolate cells from scaffold particles and the cells were pelleted and washed with cold PBS and counted using a Z2 coulter counter (Beckman Coulter). The resultant cell populations were then stained with primary antibodies (BD Pharmingen, San Diego, Calif.) conjugated to fluorescent markers to allow for analysis by flow cytometry. APC-conjugated CD11c (dendritic cell marker) and PE-conjugated CD86 (B7, costimulatory molecule) stains were conducted for DC recruitment analysis, and APC-conjugated CD11c, FITC-conjugated CCR7, and PE-conjugated MHCII stains were conducted for DC programming analysis. Cells were gated according to positive FITC, APC and PE using isotype controls, and the percentage of cells staining positive for each surface antigen was recorded. To track in vivo DC emigration from scaffolds toward the inguinal lymph nodes, 250 μg of lyophilized fluoroscein isothiocyanate (FITC) (Molecular Probes, Carlsbad, Calif.) was incorporated into scaffolds by mixing with PLG microspheres before scaffold processing, and FITC was also applied by incubating scaffolds with 330 ul of 3% FITC solution for 30 min. […] Cell suspensions from LNs were prepared by digestion in collagenase for 30 min and pressing of the tissue through 70 μm cell strainers, and examined for CD11c(+)FITC(+) cell numbers by flow cytometry.
Blank PLG matrices and matrices containing 3000 ng of GM-CSF alone or in combination with either 1, 10, 50, or 100 μg of CpG-ODN (studies were also performed with tumor lysates copresented with either 3000 ng of GM-CSF or 100 μg of CpG-ODN alone or in combination) were implanted into subcutaneous pockets on the back of 7- to 9-week-old male C57BL/6J mice. For histological examination, scaffolds were excised and fixed in Z-fix solution (Anatech), embedded in paraffin, and stained with hematoxylin and eosin (H&E). To analyze DC recruitment, scaffolds were excised at various time points and digested the ingrown tissue into single-cell suspensions with a collagenase solution (250 U/ml; Worthington) that was agitated at 37° C. for 45 min. The cell suspensions were then poured through a 40-μm cell strainer to isolate cells from scaffold particles, and the cells were pelleted and washed with cold PBS and counted with a Z2 coulter counter (Beckman Coulter). To assess DC infiltration and activation, subsets of the total cell population isolated from PLG matrices were stained with primary antibodies (BD Pharmingen) conjugated to fluorescent markers to allow for analysis by flow cytometry. Allophycocyanin (APC)-conjugated CD11c (DC marker) and phycoerythrin (PE)-conjugated CD86 (B7, costimulatory molecule) stains were conducted for DC recruitment analysis, and APC-conjugated CD11c, fluorescein isothiocyanate (FITC)-conjugated CCR7, and PE-conjugated MHCII stains were conducted for DC programming analysis. To further delineate the presence of specific DC subsets, cells were stained with APC-conjugated CD11c and PE-conjugated PDCA-1 (pDC marker), APC-conjugated CD11c and PE-conjugated CD8 (CD8 DCs), or APC-conjugated CD11c and FITC-conjugated CD11b (CD11b DCs).

[2] = test system: T cells; experiment: T cell infiltration at PLG vaccine site (flow cytometry); type: in vivo, C57BL/6J mice; conditions: with tumor lysate and GM-CSF, day 12
Protocol: Blank PLG matrices and matrices containing 3000 ng of GM-CSF alone or in combination with either 1, 10, 50, or 100 μg of CpG-ODN (studies were also performed with tumor lysates copresented with either 3000 ng of GM-CSF or 100 μg of CpG-ODN alone or in combination) were implanted into subcutaneous pockets on the back of 7- to 9-week-old male C57BL/6J mice. For histological examination, scaffolds were excised and fixed in Z-fix solution (Anatech), embedded in paraffin, and stained with hematoxylin and eosin (H&E). To analyze DC recruitment, scaffolds were excised at various time points and digested the ingrown tissue into single-cell suspensions with a collagenase solution (250 U/ml; Worthington) that was agitated at 37° C. for 45 min. The cell suspensions were then poured through a 40-μm cell strainer to isolate cells from scaffold particles, and the cells were pelleted and washed with cold PBS and counted with a Z2 coulter counter (Beckman Coulter). […] To assess T cell infiltration, PE-Cy7-conjugated CD3 stains were performed in conjunction with APC-conjugated CD8a (CD8 T cells), FITC-conjugated CD4 (CD4 T cells), and PE-conjugated FoxP3 (Treg) and analyzed with flow cytometry. Cells were gated according to positive FITC, APC, and PE with isotype controls, and the percentage of cells staining positive for each surface antigen was recorded.

[3] = test system: B16-F10 melanoma tumors; experiment: T-cell infiltration into tumor tissue (immunohistochemistry); type: in vivo, C57BL/6J mice
Protocol: PLG scaffolds with melanoma tumor lysates and various dosages of GM-CSF and/or 10 μg PEI-CpG-ODN condensates were implanted subcutaneously into the lower left flank of C57BL/6J mice. Animals were challenged 14 days later with a subcutaneous injection of 10^5 B16-F10 melanoma cells (ATCC, Manassas, N.J.) in the back of the neck. Animals were monitored for the onset of tumor growth (approximately 1 mm^3) and sacrificed for humane reasons when tumors grew to 20-25 mm (longest diameter). For histological examination, tumors were biopsied at days 20-25 after injection and fixed in Z-fix (Anatech, Battle Creek, Mich.) and stained for hematoxylin and eosin. To examine tumor tissue for T-cell infiltration, immunoperoxidase staining was performed using the avidin-biotin-peroxidase Vectastain Elite ABC kit (Vector Laboratories). The primary antibodies used were GK 1.5 (CD4), and 53-6.72 (CD8) and staining was developed using DAB+ substrate chromogen (DAKO, Carpinteria, Calif.). Sections from tumor samples (n=3 or 4) were visualized at 40× and 100× with a Nikon light microscope (Indianapolis, Ind.) and positively stained T-cells were counted manually.

[4] = test system: dendritic cells; experiment: Example 7: DC recruitment and activation in matrices with GM-CSF and TLR agonists (FACS, day 7); type: in vivo, C57BL/6J mice
From the text: The cell suspensions were then poured through a 40 μm cell strainer to isolate cells from scaffold particles and the cells were pelleted and washed with cold PBS and counted using a Z2 coulter counter (Beckman Coulter). To assess, DC infiltration and activation, subsets of the total cell population isolated from PLG matrices were then stained with primary antibodies (BD Pharmingen, San Diego, Calif.) conjugated to fluorescent markers to allow for analysis by flow cytometry. APC-conjugated CD11c (dendritic cell marker), FITC-conjugated MHCII and PE-conjugated CD86 (B7, costimulatory molecule) stains were conducted for DC recruitment and activation analysis. To further delineate the presence of specific DC subsets, cells were also stained with APC-conjugated CD11c and PE-conjugated PDCA-1 (plasmacytoid DC marker) or APC-conjugated CD11c and PE-conjugated CD8 (CD8 DCs). To assess T-cell infiltration PE-Cy7 conjugated CD3 stains were performed in conjunction with APC-conjugated CD8a (CD8 T cells), and PE-conjugated FoxP3 (Treg) and analyzed with flow cytometry. Cells were gated according to single positive FITC, APC and PE stainings and using isotype controls. The percentage of cells staining positive for each surface antigen was recorded. To examine the ability of PLG matrices to recruit and activate dendritic cells in vivo, matrices delivering GM-CSF in combination with danger signals were implanted subcutaneously into the backs of C57BL/6J mice. The magnitude of DC infiltration and activation into the matrices was determined by FACS analysis of cell populations isolated from the polymeric material after 7 days.

[5] = test system: B16-F10 melanoma cells; experiment: Prophylactic vaccination, B16-F10 melanoma tumor challenge; conditions: for mouse survival: antigen matrices, CpG and GM-CSF together versus GM-CSF alone
Protocol: PLG scaffolds with melanoma tumor lysates and various dosages of GM-CSF and/or 10 μg PEI-CpG-ODN condensates were implanted subcutaneously into the lower left flank of C57BL/6J mice. Animals were challenged 14 days later with a subcutaneous injection of 10^5 B16-F10 melanoma cells (ATCC, Manassas, N.J.) in the back of the neck. Animals were monitored for the onset of tumor growth (approximately 1 mm^3) and sacrificed for humane reasons when tumors grew to 20-25 mm (longest diameter).
PLG scaffolds with melanoma tumor lysates and various dosages of GM-CSF and/or various quantities of PEI-CpG-ODN condensates were implanted subcutaneously into the lower left flank of C57BL/6J mice. For prophylactic vaccinations, animals were challenged 14 days later with a subcutaneous injection of 10^5 B16-F10 melanoma cells [American Type Culture Collection (ATCC)] in the back of the neck. Animals were monitored for the onset of tumor growth (˜1 mm^3) and killed for humane reasons when tumors grew to 20 to 25 mm (longest diameter).

[6] = optimal CpG-ODN doses (10-25 μg) opposed by GM-CSF 3 μg, in vivo
[7] = tumor lysate with GM-CSF and CpG, day 10
[8] = optimal GM-CSF exposure (400 ng) with tumor antigen

Molecule: CpG-ODN 1826
- numbers of resident pDCs ([1]; 3000 ng GM-CSF, 10 μg CpG-ODN): 520,000 cells
- numbers of resident pDCs ([1]; 3000 ng GM-CSF, 100 μg CpG-ODN): 1,200,000 cells and 1,100,000 cells
- increase in CCR7 expressing DCs in matrices over GM-CSF or CpG-ODN delivery alone ([1]; CpG-ODN with GM-CSF): ~4.5 fold
- increase in MHCII expressing DCs in matrices over GM-CSF or CpG-ODN delivery alone ([1]; CpG-ODN with GM-CSF): approximately 2.5 fold
- total cells at the matrix site that were CD8(+) ([1]; antigen presenting matrices with GM-CSF and CpG-ODN): 10.3%
- proportion of CD8+ cDCs in DC population at vaccine site ([1]; day 10, listed as CpG): ~14% and ~9.4%
- proportion of pDCs in DC population at vaccine site ([1]; day 10, listed as CpG): ~31% and ~38%
- total DC numbers in situ ([1]; listed as CpG): 3.0±0.6 million DCs and 3.05±0.55 million DCs
- optimal CpG-ODN dose for DC activation in vivo ([1]; in presence of high GM-CSF levels): 10 to 25 µg
- numbers of activated DCs generated ([1]; infection-mimicking system, CpG-ODN ~10-25 μg with GM-CSF): > 10^6
- DC activation [1, 6]: 44%
- number of activated DCs [1, 6]: 1.5×10^6 cells
- increase (factor / fold) in pDCs over blank controls [1, 7]: 10
- increase (factor / fold) in pDCs over matrices without lysate/antigen [1, 7]: 2
- increase (factor / fold) in CD8+ DCs over blank matrices ([1]; tumor lysates with CpG-ODN and GM-CSF): 9
- number of CD8+ DCs (CD11c(+)CD8(+) cDCs) in matrices ([1]; tumor lysates with CpG-ODN, no GM-CSF): 200,000
- ratio of CD8 CTLs to FoxP3 Treg cells at vaccine site (factor) [2]: ~25
- increase in CD8(+) T-cell infiltration into tumors over controls ([3]; infection mimics, 10 μg CpG-ODN dose): ~3 fold
- CD8(+) DCs at implant site, higher than controls ([4]; with GM-CSF): 9 fold
- CD11c(+) cells positive for MHCII(+) and CD86(+), of total cells recruited ([4]; with GM-CSF): approximately 30%
- enhancement of total number of recruited DCs compared to GM-CSF delivery alone ([4]; with GM-CSF): 2.5 fold
- increase in total number of activated DCs relative to control matrices ([4]; with GM-CSF): ~23 fold
- mouse survival [5]: 90%
- survival rate ([5]; lysate, GM-CSF and 10 μg CpG-ODN): 50% and 45%
- survival rate ([5]; lysate, GM-CSF and 10 μg CpG-ODN, listed as CpG): 50%
- survival rate ([5]; lysate, GM-CSF and 50 μg CpG-ODN): 60%
- survival rate ([5]; lysate, GM-CSF and 100 μg CpG-ODN): 90%
- vaccinated mice surviving B16-F10 challenge ([5]; tumor lysates with CpG-ODN (1, 10, 50 or 100), no GM-CSF): 10 to 30% and 20% and 10-30%

B1: granulocyte macrophage colony stimulating factor (protein, UniProt P01587 18-141, looked up)
Granulocyte-macrophage …: APTRSPITVTRPWKHVEAIKEALNLLDDMPVTLNEEVEVVSNEFSFKKLTCVQTRLKIFEQGLRGNFTKLKGALNMTASYYQTYCPPTPETDCETQVTTYADFIDSLKTFLTDIPFECKKPGQK
notes: cytokine encapsulated in and released from PLG matrices to recruit DCs
- day at which activation state of DCs peaked ([1]; 3000 ng GM-CSF): 10 days
- numbers of resident pDCs ([1]; 3000 ng GM-CSF, 0 μg CpG-ODN): 190,000 cells
- increase (factor / fold) in CD11c DCs recruited vs blank PLG matrices ([1]; 3000 ng GM-CSF, day 14): ~8
- day at which activation state of DCs peaked ([1]; 7000 ng GM-CSF): 28 days
- matrix-resident DCs that were CD11b+ ([1]; GM-CSF delivery): ~87%
- number of DCs residing in the material ([1]; GM-CSF delivery): ~10^6 cells
- total DC numbers in situ [1]: 4.2±0.9 million DCs and 2.67±0.64 million DCs
- proportion of CD8+ cDCs in DC population at vaccine site ([1]; day 10): 5.5%
- proportion of pDCs in DC population at vaccine site ([1]; day 10): 7%
- number of activated DCs ([1]; best GM-CSF-based vaccine): ~240,000 DCs
- recruited DCs that were activated ([1]; best GM-CSF-based vaccine): approximately 26%
- ratio of CD8 CTLs to FoxP3 Treg cells at vaccine site (factor) [2]: almost even ratio
- increase in CD8(+) cytotoxic T-cell numbers in tumors over blank controls ([3]; appropriate GM-CSF presentation with antigen): 2 fold
- CD11c(+) cells in matrices ([4]; GM-CSF alone): 241000 cells
- CD86 expression ([4]; GM-CSF alone): 4.58 % of CD11c(+) cells
- MHCII expression ([4]; GM-CSF alone): 2.57 % of total CD11c(+) cells
- animals cured / with protective anti-tumor immunity ([5]; GM-CSF with antigen, optimal GM-CSF dose): 23%
- mouse survival [5]: 20%
- animal survival ([5]; lysate, GM-CSF, CpG dose 0 μg): 23%
- delay of tumor formation ([5]; optimal GM-CSF dose with antigen, in 50% of the animals): approximately 40 days
- increase in average time before tumor formation compared to antigen alone [5, 8]: 3 fold
- increase in average time before tumor formation over non-optimal GM-CSF exposure [5, 8]: ~2 fold
